Here are results for 8 compounds from article PMC11938273 (Journal of Chemical Information and Modeling, 2025).

For one data set the following is noted: in vivo; cited from earlier work.
Regarding `CC[C@]1(O)C[C@H]2CN(CCc3c([nH]c4ccccc34)[C@@](C(=O)OC)(c3cc4c(cc3OC)N(C=O)[C@H]3[C@@](O)(C(=O)OC)[C@H](OC(C)=O)[C@]5(CC)C=CCN6CC[C@]43[C@@H]65)C2)C1` [Vincristine, (3aR,3a1R,4R,5S,5aR,10bR)-Methyl 4-acetoxy-3a-ethyl-9-((5S,7S,9S)-5-ethyl-5-hydroxy-9-(methoxycarbonyl)-2,4,5,6,7,8,9,10-octahydro-1 H-3,7-methano[1]azacycloundecino[5,4-b]indol-9-yl)-6-formyl-5-hydroxy-8-methoxy3a,3a1,4,5,5a,6,11,12-octahydro-1 H-indolizino[8,1-cd]carbazole-5-carboxylate], the CNS status result was “Efflux transporter substrate”.

As for `COc1ccccc1N1CCN(CCN(C(=O)C2CCCCC2)c2ccccn2)CC1` [WAY-100635, N-(2-(4-(2-methoxyphenyl)piperazin-1-yl)ethyl)-N-(pyridin-2-yl)], the CNS status result was “Positive”.

Regarding `COC(=O)[C@H]1[C@@H](c2ccc(F)cc2)C[C@@H]2CC[C@H]1N2C/C=C/I` [beta-CFT, (1R,2S,3S,5S)-methyl-3-(4-fluorophenyl)-8-((E)-3-iodoallyl)-8-azabicyclo[3.2.1]octane-2-carboxylate], the CNS status result is given as “Positive”. For the compound `COC(=O)[C@H]1[C@@H](c2ccc(I)cc2)C[C@@H]2CC[C@H]1N2C` [beta-CIT, (1R,2S,3S,5S)-methyl-3-(4-iodophenyl)-8-methyl-8-azabicyclo [3.2.1]octane-2-carboxylate], the CNS status entry is reported as “Positive”. With `CN1[C@H]2CC[C@@H]1[C@@H](c1cc(-c3ccccc3)no1)[C@@H](c1ccc(Cl)cc1)C2` [beta-CPPIT, 5-((1R,2S,3S,5S)-3-(4-chlorophenyl)-8-methyl-8-azabicyclo[3.2.1]octan-2-yl)-3-phenylisoxazole], the CNS status result is listed as “Positive”. Take `CNC(C)C(O)c1cccc(O)c1` (centres unmarked) [mHED, 3-[1-Hydroxy-2-(methylamino)propyl]phenol]: the CNS status entry is “Negative”.

Regarding Teicoplanin, the CNS status result was “Negative”.

For another data set the following is noted: mouse, in vivo.
As to `COC(=O)[C@H]1[C@@H](c2ccc(I)cc2)C[C@@H]2CC[C@H]1N2C/C=C/I` [Me@IPICIT, Methyl (1R,2S,3S,5S)-3-(4-iodophenyl)-8-[(2E)-3-iodo-2-propen-1-yl]-8-azabicyclo [3.2.1]octane-2-carboxylate], the CNS status result is “Positive”.
